These results are taken from paper PMC11040665, “Aminothiazolone Inhibitors Disrupt the Protein–RNA Interaction of METTL16 and Modulate the m^6A RNA Modification” (JACS Au, 2024).

The structures appear in SMILES notation. “Also recorded” adds a separate entry of the source.

One data set deals with T1, His-tagged METTL16 MTD (Homo sapiens, UniProt Q86W50).
T1 construct: His-tagged METTL16 (1–291) was purified using the same protocol, without protease cleavage; made in house; host or cells: E. coli Rosetta (DE3)
T1 sequence (Q86W50 1-291): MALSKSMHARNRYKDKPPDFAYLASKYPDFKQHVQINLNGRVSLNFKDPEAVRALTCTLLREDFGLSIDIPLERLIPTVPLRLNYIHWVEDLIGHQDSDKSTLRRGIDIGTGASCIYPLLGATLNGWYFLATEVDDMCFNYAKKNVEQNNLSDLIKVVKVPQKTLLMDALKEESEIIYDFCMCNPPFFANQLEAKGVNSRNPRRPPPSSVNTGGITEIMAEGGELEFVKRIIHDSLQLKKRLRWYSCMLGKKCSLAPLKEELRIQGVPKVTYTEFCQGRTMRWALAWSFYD
As to the kind of experiment: switchSENSE biosensor assay. It counts as binding. The following applies: potassium salt of compound 45 was used. As for the experimental part: The biosensor assay was performed using a heliX instrument (Dynamic Biosensors) with a heliX adapter chip. The His-capture kit (HK-NTA-1) was used to functionalize and regenerate the chip. 100 nM His-tagged METTL16 MTD was captured to the surface and regenerated with imidazole solution (250 mM in 10 mM Tris, pH 7.4, 140 mM NaCl, 0.05% Tween 20, 50 μM EDTA, 50 μM EGTA) each time after measurement. PE140 buffer was used as the running buffer (10 mM Na2HPO4/NaH2PO4, pH 7.4, 140 mM NaCl, 0.05% Tween 20, 50 μM EDTA) and 0.2% DMSO was used as concertation 0. The association and dissociation flow rates were 200 μL/min, with an association time of 90 s and a dissociation time of 120 s. Data were analyzed using heliOS using the ‘kinetics mono- & biphasic-free amplitudes fitting’ mode.

The target in data set [1] is T2, methyltransferase activity of METTL16 MTD toward MAT2A-hp1 (Homo sapiens, UniProt Q86W50).
T2 construct: METTL16 MTD (1–291) was subcloned to pOPINB plasmid; His tag followed by HRV 3C cleavage site (N, cleaved yes); made in house; host or cells: E. coli Rosetta (DE3)
T2 sequence (Q86W50 1-291): T1 sequence (Q86W50 1-291)
As to the kind of experiment: In vitro methylation assay (MTase Glo). It counts as biochemical. The following applies: for inhibition of the methyltransferase activity of METTL16 MTD, in words: RNA substrate MAT2A-hp1. As for the experimental part: Next, we evaluated the inhibition of the METTL16 methylation using the MTase Glo assay kit (Promega) measuring the methyltransferase activity based on the formation of the methylation product S-adenosyl homocysteine, which was converted to ADP by the MTase-Glo reagent to trigger a subsequent luciferase reaction (Figure 5E).
The methyltransferase activity of METTL16 MTD was measured using an MTase Glo kit (Promega V7601) following the manufacturer’s instructions. The reaction was carried out in white 384-well plates (Corning #3824), with a total methyltransferase reaction volume of 8 μL, and the final concentrations of METTL16 MTD, MAT2A-hp1, and SAM were 1, 1, and 10 μM, respectively, and 1% of DMSO was used as a control. […] To use SAM at a different final concentration, the concentration of SAM was adjusted accordingly in a 2× substrate solution.

Data set [2] deals with T3, METTL16 MTD–U6 snRNA Δ interaction (Homo sapiens, UniProt Q86W50).
T3 construct: METTL16 MTD (1–291) was subcloned to pOPINB plasmid; His tag followed by HRV 3C cleavage site (N, cleaved yes); made in house; host or cells: E. coli Rosetta (DE3)
T3 sequence (Q86W50 1-291): T1 sequence (Q86W50 1-291)
As to the kind of experiment: FP assay with Cy5-labeled U6 snRNA Δ. It counts as binding.

In data set [3] the target is T4, METTL16 (1-291)–FAM-MAT2A-hp1 RNA (Homo sapiens, UniProt Q86W50).
T4 construct: METTL16 MTD (1–291) was subcloned to pOPINB plasmid; His tag followed by HRV 3C cleavage site (N, cleaved yes); made in house; host or cells: E. coli Rosetta (DE3)
T4 sequence (Q86W50 1-291): T1 sequence (Q86W50 1-291)
As to the kind of experiment: FP assay after incubating SAM with METTL16. It counts as binding. As to conditions: SAM incubated with METTL16 before the FP assay.

Another data set concerns MDA-MB-231 cells. Briefly: Colony formation assay. It counts as cell-based, human. As to conditions: 7 days, three tested concentrations. Here is the method:
MDA-MB-231 cells were collected and seeded with the density of 1000 cells per well into 24-well plates; after being cultured overnight, the medium was exchanged and treated with indicated compounds or DMSO (0.5%) as the control. The medium change and treatment were performed every 3 days. After 7 days, the cell culture medium was discarded, and cells were washed with PBS and fixed with 4% paraformaldehyde solution at room temperature for 15 min; the paraformaldehyde solution was removed, and cells were washed with PBS again to remove the paraformaldehyde. Then cells were stained with 0.1% (w/v) crystal violet. After staining for 15 min, the cells were washed with H2O to remove the extra dye and then photographed.

For data set [4], the target named is T5, METTL16 MTD–GGACU-containing RNA interaction (Homo sapiens, UniProt Q86W50).
T5 sequence (Q86W50 1-291): T1 sequence (Q86W50 1-291)
Briefly: EMSA with GGACU-containing RNA. The following applies: 5 nM RNA, 600 nM METTL16 MTD.
Experimental: METTL16 MTD protein (1–291) was incubated with the indicated compound or DMSO in a buffer containing 20 mM HEPES, pH 7.5, 50 mM NaCl, 0.05% v/v Tween 20, and 0.05 mg/mL BGG at room temperature for 30 min; subsequently, FAM-MAT2A-hp1 RNA probe was added and incubated at room temperature for 10 min, the final of protein and RNA are 50 and 5 nM respectively, and 1% DMSO was used as the control. […] The gel was detected and imaged by Chemi Doc MP (Bio-Rad). […] EMSA for testing compounds with GGAUC-motif containing RNA and METTL16 MTD interaction was performed using the method described above, expecting that the final of METTL16 MTD protein and FAM-labeled-GGACU RNA are 600 nM and 5 nM respectively. EMSA for RNA binding: indicated concentrations of fluorophore-labeled RNA were incubated with indicated concentrations of protein in EMSA buffer for 15 min at room temperature, then loaded to native PAGE gels and imaged with the method described above.

For data set [5], the target named is T6, METTL16–MAT2A-hp1 mRNA interaction (METTL16 MTD 1–291, FAM-labeled MAT2A-hp1 RNA) (Homo sapiens, UniProt Q86W50).
T6 sequence (Q86W50 1-291): T1 sequence (Q86W50 1-291)
Briefly: Fluorescence polarization (FP) assay, disruption of METTL16 binding to FAM-MAT2A-hp1 RNA.
Experimental: The binding of METTL16 to the FAM-labeled RNA probe formed a complex that led to a higher FP signal in comparison to that of the unbound RNA probe (Figure 2A). […] The Z-factor of 0.91 indicated the suitability of the assay condition (Figure S2D). […] In both FP assay and EMSA, a final concentration of 50 nM METTL16 and 5 nM FAM-MAT2A-hp was used. The METTL16 MTD (amino acids 1–291) was used in this study unless specifically indicated otherwise.
The FP assay was performed using 384-well black plates (Corning #4514) in a total reaction volume of 20 μL, with the final concentration of protein and RNA being 50 and 5 nM respectively. Compounds were diluted in FP buffer and incubated with protein for 30 min at room temperature, then FAM-MAT2A-hp1 RNA probe was added and the fluorescence polarization was measured using a TECAN Spark plate reader, under the excitation wavelength of 485 nm and the emission wavelength of 535 nm with bandwidth of 20 nm. 1% DMSO was used as the control. The inhibition was calculated with the equation: inhibition = 100%(Control – X)/(Control – Blank); Control: DMSO with protein and FAM-RNA; Blank: DMSO with FAM-RNA; X: compound with protein and FAM-RNA. The IC50 value was further determined using GraphPad Prism 9. […] The polarization was measured under an excitation wavelength of 630 nm and an emission wavelength of 680 nm with a bandwidth of 20 nm.

What is called Kd is the constant that tells how readily two partners part at equilibrium. What is called IC50 is the concentration needed to halve the response being measured. As to `CN1C(=O)C(=C2SC(NS(=O)(=O)c3ccc(C(=O)O)cc3)=NC2=O)c2cc(Br)ccc21` [Compound 45], on His-tagged METTL16 MTD, the “KA, biosensor assay” value is reported as 7.43 ± 0.84E+5 M^-1 and the dissociation constant Kd was found to be 1350 nM. The “inhibition of the methyltransferase activity of METTL16 MTD, in words” value in data set [1] was “dose-dependently inhibited”. This compound yielded a half-inhibitory concentration (IC50) in data set [2] of 2500 nM. Also, the “IC50 under different SAM concentrations (FP assay), in words” value in data set [3] is “remained”. In addition, the “inhibition on colony formation, in words” value in the data set on MDA-MB-231 cells was “did not show obvious inhibition on colony formation”. For the same compound, the “inhibition of METTL16–GGACU RNA binding in EMSA, in words” value in data set [4] is recorded as “dose-dependently inhibited”. The compound also returned an IC50 in data set [5] of 1700 nM.
The term inhibition denotes how much of the control response was suppressed. Lower therefore signals a response near the control. As to `O=C1N=C(NS(=O)(=O)c2ccc(C(=O)O)cc2)SC1=C1C(=O)Nc2ccc(Br)cc21` [Compound 47], on His-tagged METTL16 MTD, the “KA, biosensor assay” value stood at 5.67 ± 0.48E+5 M^-1 and the dissociation constant (Kd) worked out at 1760 nM. For the same compound, the “inhibition of the methyltransferase activity of METTL16 MTD, in words” value in data set [1] is given as “dose-dependently inhibited; also recorded: potent inhibitory activity”. The compound further came in with an inhibition at 50 µM in data set [1] (at 50 μM, 1 μM METTL16 MTD, 1 μM MAT2A-hp1, 10 μM SAM) above 50%. Further, inhibition in data set [2] was half-maximal at 6400 nM (IC50). For the same compound, the “IC50 under different SAM concentrations (FP assay), in words” value in data set [3] is recorded as “remained”. Besides, the “inhibition on colony formation, in words” value with MDA-MB-231 cells is reported as “mild inhibitory activity against colony formation”. The “inhibition of METTL16–GGACU RNA binding in EMSA, in words” value in data set [4] is listed as “dose-dependently inhibited”. Moreover, in data set [5], the concentration for half-maximal inhibition (IC50) is 2100 nM.
